Laboratory results as given in PMC10669542, “Ascorbate Peroxidase 2 (APX2) of Chlamydomonas Binds Copper and Modulates the Copper Insertion into Plastocyanin” (Antioxidants, 2023).

Target: T1, APX2 (recombinant His-tagged APX2) (Chlamydomonas reinhardtii, UniProt A0A2K3DPX4)
T1 construct: gene CHLRE_06g285150v5
T1 sequence (A0A2K3DPX4 97-337): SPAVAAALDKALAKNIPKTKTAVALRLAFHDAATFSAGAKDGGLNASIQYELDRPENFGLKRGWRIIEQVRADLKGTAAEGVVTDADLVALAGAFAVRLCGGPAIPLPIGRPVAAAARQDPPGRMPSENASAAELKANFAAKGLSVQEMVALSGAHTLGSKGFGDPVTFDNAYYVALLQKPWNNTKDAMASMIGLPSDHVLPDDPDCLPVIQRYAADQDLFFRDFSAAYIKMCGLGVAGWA
Test: peroxidase assay, tetraguaiacol formation at […] nm
Format: biochemical
Settings: electron donor, 10 mM; H2O2 varied 0-1 mM; 0.2 uM enzyme; 20 mM potassium phosphate pH 6.0

COc1ccccc1O [guaiacol]
peroxidase assay, tetraguaiacol formation at 470 nm: The enzyme demonstrated activity in the presence of guaiacol, a well-known electron donor for peroxidases
